Consider 13 compounds from publication PMC7827217, “Probing the Binding Requirements of Modified Nucleosides with the DNA Nuclease SNM1A” (Molecules, 2021).

Each structure is given as a SMILES string.

The target of experiment [1] is T1, recombinant SNM1A (698-1040) (Homo sapiens, UniProt Q6PJP8).
T1 construct: SNM1A (698-1040) was expressed and purified as described by Allerston et al; made in house
T1 sequence (Q6PJP8 698-1040): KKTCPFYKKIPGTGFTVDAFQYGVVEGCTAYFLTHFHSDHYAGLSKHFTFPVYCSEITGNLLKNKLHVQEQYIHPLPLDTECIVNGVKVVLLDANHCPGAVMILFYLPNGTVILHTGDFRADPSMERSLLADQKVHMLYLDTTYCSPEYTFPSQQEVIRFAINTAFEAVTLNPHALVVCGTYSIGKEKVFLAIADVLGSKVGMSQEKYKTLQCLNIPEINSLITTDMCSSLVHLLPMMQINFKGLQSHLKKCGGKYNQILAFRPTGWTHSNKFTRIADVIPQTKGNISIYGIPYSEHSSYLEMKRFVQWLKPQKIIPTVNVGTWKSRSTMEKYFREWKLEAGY
Briefly: Gel-based SNM1A inhibition assay (digestion of fluorescent 21-mer oligonucleotide substrate, denaturing PAGE). Type of experiment: biochemical. Particulars: for Inhibition of SNM1A (extent of digestion of substrate): 1 mM compound, 60 min incubation (Figure 2c); for Inhibition of SNM1A (extent of digestion of substrate) / Lowest Inhibitory Concentration: SNM1A 2.5 nM, substrate 80 nM, 5 min preincubation; for Lowest Inhibitory Concentration: concentration gradient 1 mM to 1 µM, approximately 3-fold dilutions, 60 min at 37 °C. As to the method:
The twelve modified nucleosides (Figure 2a) were evaluated as inhibitors of recombinant SNM1A to evaluate binding to the active site, using a previously reported gel-based assay with the same 21-mer oligonucleotide substrate. The nucleosides were incubated with SNM1A for 5 min prior to the addition of the fluorescently tagged 21-mer oligonucleotide substrate and further incubation for 1 h. In the event of the nucleoside binding to the active site, digestion of the substrate proceeds less efficiently (Figure 2b). SNM1A removes nucleotide monomers from the 5′-end, generating a shorter oligonucleotide that in turn is a substrate for SNM1A and can be digested further. The size of the oligonucleotide products, analysed by gel electrophoresis, therefore indicates how strongly a compound binds to the nuclease.
SNM1A (698-1040) was expressed and purified as described by Allerston et al..
SNM1A (698-1040) was stored as a 1.0 µM solution in reaction buffer (20 mM HEPES-KOH, pH 7.5, 50 mM KCl, 10 mM MgCl2, 0.05% Triton-X, 0.1 mg/mL BSA, 5% glycerol, 0.5 mM DTT). An oligonucleotide of the sequence 5′-TTAGCAGTCAGTCAGTCATCG-Cy3-3′ was phosphorylated using T4 PNK (New England Biolabs) and used as the substrate. Modified nucleosides were added to the assay in 40% DMSO solution (10 mM or as specified). Fluorescent oligonucleotides were protected from light during incubations and gel electrophoresis.
Modified nucleosides (10 nmol or as specified) were mixed with SNM1A (698–1040) (25 fmol) in reaction buffer containing 4% DMSO (10 µL) on ice and incubated at 37 °C for 5 min. Phosphorylated oligonucleotide (0.8 pmol) was added and the reaction was incubated at 37 °C for 60 min. The reaction was stopped by the addition of stop solution (2 µL, 95% formamide, 10 mM EDTA) followed by heating to 95 °C for 3 min. The products of the reaction were analysed using gel electrophoresis; 3 µL of each reaction was used.
Oligonucleotides were separated on a 15% acrylamide 6.5 M urea gel (2.9 g urea, 2.7 mL 40% acrylamide-bisacrylamide 25:1, 1.4 mL 5× TBE (0.45 M Tris, 0.45 M boric acid, 0.01 M EDTA pH 8.0), 0.6 mL H2O) in 1X TBE at 150 V for 90 min alongside bromophenol blue and xylene cyanol as markers for 8 and 28 nt, respectively, and imaged using Typhoon FLA 9500.
Figure 2 Evaluation of modified (di)nucleosides as inhibitors of SNM1A. (a) Structures of the twelve (di)nucleosides that were evaluated as inhibitors of SNM1A; (b) schematic representation of assay; (c) gel electrophoresis showing the extent of digestion of fluorescent 21-mer oligonucleotide substrate. SNM1A (2.5 nM) was pre-incubated with the modified (di)nucleosides (1 mM) for 5 min before the oligonucleotide substrate (80 nM) was added and a further 60 min incubation. nt = nucleotides.
Figure 3 Concentration dependence of 5′-C-linked malonate nucleoside 11. Digestion of the phosphorylated oligonucleotide (80 nM) after incubation with SNM1A (2.5 nM) and nucleoside 11 (1000–1 µM) or thymidine (T) (1 mM) for 60 min at 37 °C, analysed by denaturing PAGE. SNM1A was preincubated with the modified nucleoside for 5 min at 37 °C prior to the addition of the substrate. nt = nucleotides.

In experiment [2] the test system is SNM1A. Also on record: method as in PMID 31380542. The settings on record: previous work; cited from earlier work.

With `Cc1cn([C@H]2C[C@H](O)[C@@H](CO)O2)c(=O)[nH]c1=O` [Thymidine, reference compound], the “Inhibition of SNM1A (extent of digestion of substrate)” value in experiment [1] is given as “no effect on the hydrolysis of the substrate”.

Regarding `Cc1cn(C2CC(O)C(CC(C(=O)O)C(=O)NC3CC(n4cc(C)c(=O)[nH]c4=O)OC3CO)O2)c(=O)[nH]c1=O` (stereo not shown) [Compound 35, N-(3′-Deoxythymidin-3′-yl)-C-(5′-deoxythymidin-5′-yl) amido sodium malonate], in experiment [1], the “Inhibition of SNM1A (extent of digestion of substrate)” value was “approximately equal potency” and the “Lowest Inhibitory Concentration” value was 333 µM.

In the case of `Cc1cn([C@H]2C[C@H](NC(=O)CC(=O)NO)[C@@H](CO)O2)c(=O)[nH]c1=O` [Compound 28, N-(3′-Deoxythymidin-3′-yl) amido N-hydroxymalonamide], the “Lowest Inhibitory Concentration” value in experiment [1] is recorded as 333 µM.

For `Cc1cn([C@H]2C[C@H](O)[C@@H](CC(C(=O)O)C(=O)NO)O2)c(=O)[nH]c1=O` (stereo partly shown) [Compound 11, C-(5′-deoxythymidin-5′-yl) sodium N-hydroxymalonamide], in experiment [1], the “Inhibition of SNM1A (extent of digestion of substrate)” value is reported as “most potent overall” and the “Lowest Inhibitory Concentration” value is given as 33 µM. The “Potency compared with previously reported compounds” value in experiment [1] (various concentrations, Figure 5b) was “slightly lower potency than compound 1”.

Regarding `Cc1cn([C@H]2C[C@H](O)[C@@H](CNC(=O)CC(=O)NO)O2)c(=O)[nH]c1=O` [Compound 15, N-(5′-Deoxythymidin-5′-yl) amido N-hydroxymalonamide], in experiment [1], the “Inhibition of SNM1A (extent of digestion of substrate)” value is reported as “binds SNM1A” and the “Lowest Inhibitory Concentration” value is listed as 333 µM.

As to `Cc1cn(C2CC(O)C(CC(C(=O)NO)C(=O)NC3CC(n4cc(C)c(=O)[nH]c4=O)OC3CO)O2)c(=O)[nH]c1=O` (stereo not shown) [Compound 36, N-(3′-Deoxythymidin-3′-yl)-C-(5′-deoxythymidin-5′-yl) amido N-hydroxy malonamide], in experiment [1], the “Inhibition of SNM1A (extent of digestion of substrate)” value was “approximately equal potency” and the “Lowest Inhibitory Concentration” value turned out to be 333 µM.

Turning to `Cc1cn([C@H]2C[C@H](O)[C@@H](C(=O)NO)O2)c(=O)[nH]c1=O` [Compound 1], the “Inhibition of SNM1A” value in experiment [2] was “inhibit SNM1A to varying degrees”.

Regarding `COC(=O)CC(=O)NC1CC(n2cc(C)c(=O)[nH]c2=O)OC1CO` (stereo not shown) [Compound 26, N-(3′-Deoxythymidin-3′-yl) amido methyl malonamide], the “Inhibition of SNM1A (extent of digestion of substrate)” value in experiment [1] is “inactive”.

`Cc1cn([C@H]2C[C@H](NC(=O)CC(=O)O)[C@@H](CO)O2)c(=O)[nH]c1=O` [Compound 27, N-(3′-Deoxythymidin-3′-yl) amido sodium malonamide]: the “Lowest Inhibitory Concentration” value in experiment [1] turned out to be 333 µM.

With `COC(=O)C(C[C@H]1O[C@@H](n2cc(C)c(=O)[nH]c2=O)C[C@@H]1O)C(=O)O` (stereo partly shown) [Compound 9, C-(5′-Deoxythymidin-5′-yl) monomethyl sodium malonate], the “Lowest Inhibitory Concentration” value in experiment [1] stood at 333 µM.

With `Cc1cn([C@H]2C[C@H](O)[C@@H](CC(C(=O)O)C(=O)O)O2)c(=O)[nH]c1=O` [Compound 10, C-(5′-Deoxythymidin-5′-yl) disodium malonate], the “Lowest Inhibitory Concentration” value in experiment [1] amounted to 333 µM.

As for `COC(=O)C(CC1OC(n2cc(C)c(=O)[nH]c2=O)CC1O)C(=O)NC1CC(n2cc(C)c(=O)[nH]c2=O)OC1CO` (stereo not shown) [Compound 34, N-(3′-Deoxythymidin-3′-yl)-C-(5′-deoxythymidin-5′-yl) amido methyl malonate], in experiment [1], the “Inhibition of SNM1A (extent of digestion of substrate)” value is reported as “some inhibition” and the “Lowest Inhibitory Concentration” value was 1000 µM.

On to `Cc1cn([C@H]2C[C@H](O)[C@@H](CCC(=O)NO)O2)c(=O)[nH]c1=O` [Compound 2], for which, in experiment [2], the “Inhibition of SNM1A” value is on record as “inhibit SNM1A to varying degrees”.
